Here are results for 8 compounds from patent US4565813A, “1,4-Thiazine derivatives” (Zenyaku Kogyo Kabushiki Kaisha, priority 1983, dated 1986).

Where two headings read alike, the source gives them in different places.

For series [1], the system named is isolated atria. Kind of series: Contractile force of isolated atria. On the set-up: species or system guinea pig (male Hartley). To be noted: Cavia porcellus; 50.0 μg/ml, isolated guinea pig atria; read-out: Maximum Contractile Force (increase). The protocol:
The pharmacological effects of the compound of the following general formula I will now be described: [drawing 9] wherein R1, R2 and R3 are as defined above. (1) The contractile force of isolated atria was tested according to the method of L. J. Macleod described in Pharmacological Experiments on Intact Preparations, pages 112-115 (1970). A 7-weeks-old male Hartley guinea pig (having a body weight of about 350 g) was killed by a blow on the head. The chest was opened and the heart was removed as quickly as possible and placed in Ringer-Locke solution (prepared by adding distilled water to 9.0 g of sodium chloride, 0.25 g of potassium chloride, 0.15 g of calcium chloride and 1.0 g of glucose so that the total amount was 1,000 ml) at room temperature. All other tissues was cut away until nothing was left except the atria. Threads were tied to each tip of the atria and the preparation thus obtained was mounted in Ringer-Locke solution at 30±1° C., through which a brisk stream of pure oxygen was bubbled. One thread was attached to a fixed pin in the Magnus' bath and the other to a force-displacement transducer connected to an electrical amplifier and recorder. When the rate and amplitude became constant, recording was started. After 1 minute, the solution of sample compound was injected and recording was conducted for 2 minutes. After completion of recording, the isolated atria was washed with Ringer-Locke solution until the rate and amplitude became constant. After 15 minutes, recording was started again.

Series [2] has as its system coronary blood flow. Description: Coronary-vasodilating action (Langendorff's method). Set-up: species or system guinea pig (male Hartley). To be noted: Cavia porcellus; for activation at 0.1 mg: dose 100 μg. The protocol: (3) The coronary-vasodilating effect was tested according to the method disclosed in Basic Lectures of Medicine Development, Volume V, Pharmacological Test Methods, Part 2, page 537 (1971). A 7-weeks-old male Hartley guinea pig (having a body weight of about 350 g) was used. And the measurement was carried out under a perfusion pressure of about 60 mmHg according to the Langendorff's method by using as a nutrient solution a Krebs' solution. The incubation temperature was 37° C.

For series [3], the system named is isolated papillary muscles. Description: Contractile force of isolated papillary muscles. Set-up: species or system cat (female). To be noted: Felis catus, isolated cat papillary muscles, read-out: Maximum Contractile Force (increase); for activation at 10 µg/mL: 1.0 × 10^-5 g/ml. The protocol:
(2) The contractile force of isolated papillary muscles was tested according to the method described in Basic Lectures of Medicine Development, Volume V, Pharmacological Test Methods, Part 2, page 535 (1971). A female cat (having a body weight of about 3.5 kg) was anaesthetized with ether-chloroform gas and exsanguinated. The chest of each cat was opened and the heart was excised, rinsed with Krebs-Henseleitsolution (prepared by adding distilled water to 6.92 g of sodium chloride, 0.35 g of calcium chloride, 0.29 g of magnesium sulfate, 0.16 g of mono-basic potassium phosphate, 2.1 g of sodium bicarbonate and 1.8 g of glucose so that the total amount was 1 l) and one or more small, thin papillary muscles from the right ventricule were dissected. Then papillary muscles were mounted in 20 ml Magnus' bath containing Krebs-Henseleit solution bubbled with oxygen gas at a temperature of 30±1° C. The papillary muscles were stimulated electrically at the rate of 2 beat/sec. and a voltage of 20% above threshold. The developed tension of the muscles was recorded isometrically on recorder by the use of force displacement tansducers.

In series [4] the test system is ventricular muscle and heart rate, anaesthetized dog. Kind of series: Contractile force of ventricular muscle and heart rate of anaesthetized dog. The class given is in vivo, dog (male). To be noted: for Heart Rate (up): infused i.v. 320 μg/kg/minute, anaesthetized dog; for Contractile Force of Ventricular Muscles (increase): infused i.v. (left femoral vein) 320 μg/kg/minute until maximum inotropic effect. As to the method: (4) The contractile force of ventricular muscle and heart rate in anaesthetized dog was tested according to the method described in Basic Lectures of Medicine Development, Volume V, Pharmacological Test Methods, Part 2, page 544 (1971). A male dog (having a body weight of about 12-14 kg) was anaesthetized with 40 mg/kg body weight of pentobarbital sodium (i.p.). Supplemental dose of pentobarbital was administered whenever necessary. An intra-tracheal cannula was inserted and ventilation was carried out by means of Harvard constant-volume, positive pressure pump using room air. The chest was opened by a midline incision and the heart was suspended in the pericardial cradle. The contratile force of the myocardium was measured by means of Walton-Brodie type strain-gauge arch sutured onto the left ventricle. Systemic blood pressure was measured from the left femoral artery by a pressure transducer and heart rate was calculated by blood pressure pulses. Sample compounds were infused into the left femoral vein at a rate of 320 μg/kg/minute until a maximum inotropic effect is obtained.

For series [5], the system named is platelet aggregation. Kind of series: Inhibition of platelet aggregation. The class given is cell-based, rat (male Wistar). To be noted: Rattus norvegicus, 83.0 μg/ml. The protocol:
(5) The inhibition of platelet aggregation was determined according to the method of Yamazaki [Hiroo Yamazaki, Clinical Inspections, 22, (9) 935-943 (1978)]. Eleven-weeks-old male Wistar rats (having a body weight of about 350 g) were used. Blood was drawn by venupuncture in the […]. Nine fold volume of blood was drawn, with mixing, into a syringe containing one volume of 3.1% (W/V) sodium citrate. Platelet-rich-plasma (PRP) was collected as the supernatant after centrifuging the citrated blood at 1,000 rpm for 10 min. Platelet-poor-plasma (PPP) was the resulting supernatant after the residual citrated blood was additionally centrifuged at 3,000 rpm for 10 min. Each 210 μl aliquot of PPP and PRP was placed in cuvette and stirred at 37° C. in aggregometer. The aggregation reactions were determined by changes in light transmissions. A 20 μl sample was injected into PRP in the aggregometer, and 1-2 min. later, a 20 μl aggregation stimulant was injected. Aggregation pattern and maximal aggregation rate of each sample were compared with those of control. 100 μM of ADP (adenosine-5'-diphosphate or 100 μg/ml of collagen was used as the aggregation stimulant. The obtained results are shown in Table 5.

Series [6] has as its system systolic blood pressure and heart rate, rats. Description: Effect on systolic blood pressure and heart rate (indirect tail-cuff method). Type of series: in vivo, rat (male Wistar). To be noted: 25 mg/kg p.o. The protocol: Male Wister rats (having a body weight of about 350 g) were used. Systolic blood pressure and heart rate were measured in rats by indirect tail-cuff method, using a programmed electrosphymomanometer.

The test system of series [7] is smooth muscle of bronchus. Description: Bronchodilation effect (tracheal ring chain). On the set-up: species or system guinea pig (male Hartley). As to the method:
(7) The bronchodilation effect was tested according to the method of L. J. Macleod in Pharmacological Experiments on Intact Preparations, Pages 100-103 (1970). A 7-weeks-old, male Hartley guinea pig (having a body weight of about 350 g) was killed by a blow on the head and cutting the throat. The trachea was dissected out and transferred into Krebs' solution. The excessive tissue was removed and the trachea was cut transversely with great care not to damage smooth muscle, to form at least 5 tracheal rings which are tied together so as to form chain. One thread was attached to a fixed pin in the Magnus' bath and the other, to a force-displacement transducer connected to an electrical amplifier and recorder. Experiments with this preparation were performed at 37±1° C. in Krebs' solution through which O2 plus 5% CO2 was bubbled. The sample compound was injected and the recording was conducted for 4 minutes. After completion of the recording, the sample was washed out with Krebs' solution until the base line became stable. After 30 to 50 minutes, the recording was started again.

Series [8] is described as follows: Acute toxicity (Litchfield-Wilcoxon method). To be noted: mouse, in vivo, iv; tail vein, 6-weeks-old male ddY mice. The protocol:
The acute toxicity of the compound of the general formula I was determined according to the Litchfield-Wilcoxon method [J. Pharm. Exp. Ther., 96, 99 (1949)] using 6-weeks-old male ddY mice (having a body weight of 19 to 24 g) while administrating the sample compound in the tail vein.

Where [9] appears, read: read-out: Coronary Blood Flow Increase Ratio, Maximum Increase Ratio of Sample.
[10] abbreviates: 0.5 h, dose 500 μg, 30 minutes, read-out: Coronary Blood Flow Increase Ratio, 30 Minutes after Administration.
[11] abbreviates: dose 500 μg, read-out: Coronary Blood Flow Increase Ratio, Maximum Increase Ratio of Sample.

Turning to `CC1=C(c2ccncc2)SCC(=O)N1C` [R1 = CH3, R2 = CH3, R3 = H, 4,5-dimethyl-6-(4-pyridinyl)-2H-1,4-thiazin-3-one], the activation at 50 µg/mL in series [1] turned out to be 18%. Moreover, the activation at 0.1 mg came out at 8% in series [2] (0.5 h, 30 minutes, read-out: Coronary Blood Flow Increase Ratio, 30 Minutes after Administration) and 28% in series [2] (setting [9]).
As to `O=NO` [Sodium nitrite, reference compound], the activation at 0.5 mg in series [2] (0.5 h, read-out: Coronary Blood Flow Increase Ratio, 30 Minutes after Administration) was 5%; in series [2] (setting [9]), 20%.
With `CC1=C(C2CCNCC2)SCC(=O)N1` [By-product, 5-methyl-6-(4-piperidinyl)-2H-1,4-thiazin-3(4H)-one], in series [1], the activation at 50 µg/mL stood at 5%. Also, the activation at 0.5 mg in series [2] (setting [10]) was found to be 5%; in series [2] (setting [11]), 12%.
Turning to `CC1=C(c2ccncc2)SCC(=O)N1` [R1 = H, R2 = CH3, R3 = H, 5-methyl-6-(4-pyridinyl)-2H-1,4-thiazin-3(4H)-one], the activation at 50 µg/mL in series [1] came to 40%. For the same compound, in series [3], the activation at 10 µg/mL was 61%. In addition, the activation at 1 µg/mL in series [3] (1.0 × 10^-6 g/ml) came to 27%. In addition, the activation at 0.5 mg is 10% in series [2] (setting [10]) and 71% in series [2] (setting [11]). Moreover, the results for the “Heart Rate (up)” value in series [4] and in series [6] were 30% and 19%, respectively. In addition, the “Contractile Force of Ventricular Muscles (increase)” value in series [4] was found to be 170%. For the same compound, the inhibition at 83 µg/mL in series [5] (stimulant 100 μM ADP, read-out: Aggregation Inhibition Ratio, ADP) was found to be 80%; in series [5] (stimulant 100 μg/ml collagen, read-out: Aggregation Inhibition Ratio, Collagen), 100%. Also, the “Blood Pressure (systolic), direction of change” value (shortened to “Blood Pressure … of change”) in series [6] was “decrease”. For the same compound, the “Influence of Smooth Muscle of Bronchus (relaxed by)” value in series [7] was at least 0.13 m/m. Also, the LD50 in series [8] was in the range of 165 to 200 mg/kg.
Take `CC(C)NCC(O)c1ccc(O)c(O)c1` (centres unmarked) [isoproterenol, reference compound]: in series [1], the activation at 50 µg/mL came to 40%.
On to `Nc1cc(-c2ccncc2)c[nH]c1=O` [amrinone, reference compound], for which the activation at 100 µg/mL in series [3] (1.0 × 10^-4 g/ml) stood at 77%. Besides, the activation at 10 µg/mL in series [3] worked out at 17%. For the same compound, in series [4], the “Heart Rate (up)” value was found to be 25% and the “Contractile Force of Ventricular Muscles (increase)” value was determined as 25%.
Take `Cc1[nH]c(=O)c(C#N)cc1-c1ccncc1` [Milrinone]: in series [6], the “Blood Pressure … of change” value is on record as “decrease” and the “Heart Rate (up)” value is given as 51%.
Regarding `Cn1c(=O)c2[nH]cnc2n(C)c1=O` [Theophylline, reference compound], the activation at 0.5 mg in series [2] (setting [10]) was -10%; in series [2] (setting [11]), 32%. Moreover, in series [6], the “Blood Pressure … of change” value is reported as “increase”. In series [6], the “Heart Rate (up)” value stood at 29%.

For orientation: LD50 means the dose at which mortality reaches 50%.
